Data from patent EP2181708A1, “Use of Valproate for reducing CHOP levels, particularly in a mammal having SCI” (Universitat Autonoma de Barcelona, priority 2008, dated 2010).

Legend:
P-eIF2α = assay: Western blot of phospho-eIF2α in spinal cord after contusion SCI; assay type: in vivo, Sprague-Dawley rats; conditions: whether higher in VPA-treated injured spinal cords than in vehicle-treated ones
Experimental: Adult females Sprague-Dawley rats aged 11 weeks (220-250 g) were anesthetized with pentobarbital (40 mg/kg i.p.). When unresponsive, the vertebral column was exposed and a laminectomy carried out at T8-T9 levels. Rostral T7 and caudal T10 vertebral bodies were clamped with Adson stabilizing forceps, and carefully adjusted to level the spinal cord in the horizontal plane. A contusion injury was performed using the Infinite Horizon impactor device (Precision Scientific Instruments, Lexington, KY). The stainless steel impounder tip was placed at 3-4 mm above the exposed spinal cord, and then a fast impact produced applying forces of 150 or 250 kilodynes (KDyn) to the exposed spinal cord. The wound was sutured with 5-0 silk thread in the muscular plane and the skin was closed with small clips and disinfected with povidone iodine solution. Sham-operated animals received the same surgical procedure but sustained no impact injury; the spinal cord was left exposed for 5 min. […]
Rats were re-anesthetised and decapitated at 3 dpo for sample preparation. […] After clearance, protein concentration was measured by the BCA method assay (BCA Protein Assay kit, Pierce). […] The membrane was visualized by enhanced chemiluminiscence (ECL) method and the images analyzed with Gene Snap and Gene Tools software, and Gene Genome apparatus (Syngene). […]

CHOP = assay: Western blot of CHOP in spinal cord after contusion SCI; assay type: in vivo, Sprague-Dawley rats
Experimental: Adult females Sprague-Dawley rats aged 11 weeks (220-250 g) were anesthetized with pentobarbital (40 mg/kg i.p.). When unresponsive, the vertebral column was exposed and a laminectomy carried out at T8-T9 levels. Rostral T7 and caudal T10 vertebral bodies were clamped with Adson stabilizing forceps, and carefully adjusted to level the spinal cord in the horizontal plane. A contusion injury was performed using the Infinite Horizon impactor device (Precision Scientific Instruments, Lexington, KY). The stainless steel impounder tip was placed at 3-4 mm above the exposed spinal cord, and then a fast impact produced applying forces of 150 or 250 kilodynes (KDyn) to the exposed spinal cord. The wound was sutured with 5-0 silk thread in the muscular plane and the skin was closed with small clips and disinfected with povidone iodine solution. Sham-operated animals received the same surgical procedure but sustained no impact injury; the spinal cord was left exposed for 5 min. The animals were maintained in a warm environment until full recovery, and received preventive antibiotic (amoxicyline) and analgesic (buprenorphine) treatment. All animals were kept under standard conditions of light and temperature and fed with food and water ad libitum. The procedures involving animals were approved by the Ethics Committee of our institution, and followed the European Communities Council Directive 86/609/EEC.
VPA was intraperitoneally administered at an initial dose of 150 mg/kg by 3 h after surgery, and then a dose of 300 mg/Kg either every 24 h or every 12 h during the first week post-surgery, following by a dose of 300 mg/Kg every 24 h for the next two weeks. Groups of rats subjected to SCI or sham operation received VPA or saline injections following the same regime. […]
Rats were re-anesthetised and decapitated at 3 dpo for sample preparation. […] After clearance, protein concentration was measured by the BCA method assay (BCA Protein Assay kit, Pierce). […]

CCCC(CCC)C(=O)O [VPA, 2-propylpentanoic acid]
levels of P-eIF2α (P-eIF2α): not | CHOP levels (CHOP; VPA 300 mg/kg every 12 h i.p., contusion 150 and 250 KDyn, three days post-injury): significantly reduced | CHOP level reduction, 250 KDyn versus 150 KDyn contusion (CHOP; VPA 300 mg/kg every 12 h i.p., three days post-injury): more pronounced | CHOP levels (CHOP; VPA 300mg/kg once per day i.p., vs saline, 3 days post-injury): did not produce changes
